Experimental findings from article PMC6337391 (Molecules, 2019) are described below.

One assay concerns the target T1, human h-15-LOX-1 (Homo sapiens, UniProt P16050).
T1 sequence (P16050 1-662): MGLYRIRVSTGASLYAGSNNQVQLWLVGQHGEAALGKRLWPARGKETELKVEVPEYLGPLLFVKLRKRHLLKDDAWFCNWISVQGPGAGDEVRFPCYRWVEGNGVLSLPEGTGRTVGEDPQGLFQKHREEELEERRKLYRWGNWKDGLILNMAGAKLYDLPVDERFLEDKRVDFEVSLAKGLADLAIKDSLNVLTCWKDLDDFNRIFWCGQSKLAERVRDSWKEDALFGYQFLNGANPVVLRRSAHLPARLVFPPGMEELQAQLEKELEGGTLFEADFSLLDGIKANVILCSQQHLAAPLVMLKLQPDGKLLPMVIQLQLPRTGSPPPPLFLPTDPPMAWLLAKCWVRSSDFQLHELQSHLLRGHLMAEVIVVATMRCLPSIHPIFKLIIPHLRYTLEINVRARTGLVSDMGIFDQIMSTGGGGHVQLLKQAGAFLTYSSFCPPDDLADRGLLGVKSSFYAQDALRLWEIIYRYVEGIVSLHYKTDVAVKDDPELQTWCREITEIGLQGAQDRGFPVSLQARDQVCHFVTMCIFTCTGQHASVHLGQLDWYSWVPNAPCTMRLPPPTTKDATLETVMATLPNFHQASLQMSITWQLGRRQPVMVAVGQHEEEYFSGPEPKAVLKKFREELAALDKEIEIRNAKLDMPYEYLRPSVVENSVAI
The assay can be described thus: Human h-15-LOX-1 screening UV assay. Conditions: for h-15-LOX-1 inhibitory potency ranking at 50 µM (in words): 10 min pre-incubation. The format is biochemical. The procedure: The residual enzyme activity was measured after 10 min pre-incubation with the tested compounds at room temperature. […] Compound c11 follows.
The assay buffer consists of HEPES titrated to pH 7.5 using a concentrated aqueous solution of NaOH. Linoleic acid (LA) was used as a substrate. The linear absorbance increase in absence of the inhibitor was set as 100%, whereas the absorbance increase in absence of the enzyme was set to 0%. All experiments were performed in triplicate and the average triplicate values and their standard deviations are plotted. The vertical axis describes the residual enzyme activity percent % of the human h-15-LOX-1, whereas the horizontal axis describes the concentration of 50 µM of the compounds. The half maximal inhibitor concentration (IC50) of the inhibitors for h-15-LOX-1 was determined using the same assay (Figure 6 and Figure 7).

A short description of assay [1]: Reducing activity with the stable radical DPPH. In a few lines:
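DPPH (final 0.05 mM) in absolute ethanol mixed with an equal volume of compound at 0.05 or 0.1 mM, ethanol as control. Absorbance at 517 nm read at room temperature after 20 and 60 min, expressed as reducing activity RA%.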
On the technique in general: The DPPH test is a chemical assay of radical scavenging.

As to `O=C(/C=C/c1cccc2ccccc12)c1ccccc1O` [b4, (E)-1-(2-hydroxyphenyl)-3-(naphthalen-1-yl) prop-2-en-1-one], the “h-15-LOX-1 inhibitory potency ranking at 50 µM (in words)” value on human h-15-LOX-1 is “highest activity within the group”. Further, the IC50 at human h-15-LOX-1 (read-out: h-15-LOX-1 Inhb. IC50) amounted to 9.5 µM. Further, in assay [1], the “RA% 100 μM 20 min” value came to 30% and the “RA% 100 μM 60 min” value amounted to 20%.
`O=C(/C=C/C=C/c1ccc([N+](=O)[O-])cc1)c1ccc(OCCCOc2ccc(C(=O)/C=C/C=C/c3ccc([N+](=O)[O-])cc3)cc2)cc1` [c11, (2E,2′E,4E,4′E)-1,1′-((propane-1,3-diylbis(oxy))bis(4,1-phenylene))bis(5-(4-nitrophenyl)penta-2,4-dien-1-one)]: the “h-15-LOX-1 inhibitory potency ranking at 50 µM (in words)” value at human h-15-LOX-1 is reported as “(2nd potent at 50 μM)”. In assay [1], the “RA% 100 μM 20 min” value is “No” and the “RA% 100 μM 60 min” value was “no”.

A word on the IC50: it is the concentration that gives 50% inhibition.
